SMILES strings stand for the structures.

In the test the test system is Hmex1906 primary human melanoma tumors. Put plainly: Hmex1906 primary human melanoma xenograft in nude mice, emergence of resistance under continuous vs intermittent dosing. Type of test: in vivo. As to conditions: 5 mg/kg bid. The protocol:
Hmex1906 primary human melanoma tumors are implanted at passage 3 into nude mice. The mice were monitored until the implanted tumors reached 200-400 mm^3. Once this size is reached, the mice are dosed bid with 5 mg/kg of a Raf inhibitor (Compound of Formula II) for 4 weeks. Some of the mice continue treatment while others are subject to an intermittent treatment schedule of 4 weeks of treatment and 2 weeks of drug holiday.
A general note: Xenograft models place foreign cells or tissue in a host animal.

For `COC(=O)N[C@@H](C)CNc1nccc(-c2cn(C(C)C)nc2-c2cc(Cl)cc(NS(C)(=O)=O)c2F)n1` [Compound of Formula II], the “emergence of resistance to the BRAF inhibitor” value is, setting by setting: (continuous dosing, nude mice with Hmex1906 tumors (200-400 mm^3 at start)) “Resistance emerged in all mice”; (intermittent schedule: 4 weeks of treatment and 2 weeks of drug holiday, nude mice with Hmex1906 tumors, 5 mg/kg) “no evidence of resistance”; (intermittent schedule: 4 weeks of treatment and 2 weeks of drug holiday, nude mice with Hmex1906 tumors, listed as BRAF inhibitor of formula II, 5 mg/kg) “delays or prevents the onset of resistance”.

Values taken from US11007194B2, “Method of treating a proliferative disease” (Array BioPharma Inc., priority 2011, dated 2021).
